Data: US9952300B2, “Dynamic contrast enhanced MRI method and agents for the assessment of the macromolecular transport within pathologic tissues” (BRACCO IMAGING S.P.A., priority 2012, dated 2018)
Values joined by “and” are separate entries in the source; they are usually repeats but may differ in a detail not shown here. Equal entries are not always repeated.

Columns and labels:
Human Serum Albumin = Human Serum Albumin (Homo sapiens, UniProt P02768); settings: literature; cited from earlier work
[1] = test system: PC-3 human prostate adenocarcinoma tumor; experiment: DCE-MRI of contrast agent kinetics in PC-3 tumors of Axitinib- or vehicle-treated mice (Example 3); type: in vivo, NCR athymic nude mice; settings: contrast agent 100 μmol/kg i.v., one value per animal
Source text: The comparative test has been performed using NCR athymic nude mice implanted with PC-3 cells (a human prostate cancer line) and treated with Axitinib®, a VEGFRs inhibitor, (to modulate the tumor vascular permeability) by a protocol which timing is for instance schematized in FIG. 1. Scope of the test was to compare the image-based analysis of the albumin distribution in a human tumor model as extracted from the analysis of a time-serie of MRI images (with spatial resolution of around 110 μm) acquired with the method of the invention after injection of B22956/1 as contrast agent, and the distribution of FITC-BSA (Fluorescent isothiocyanate Bovine Serum Albumin) albumin inside and outside vessels histologically determined from fluorescent microscopy images on a scale of microns.
In particular, the trans-endothelial permeability (K^Trans) and the fractional plasma volume (fPV) were calculated from dynamic MR data by application of a bi-compartmental pharmacokinetic model, while the Initial Area Under the Curve (IAUCT) was calculated in several time windows, typically comprised between the contrast agent administration and the end of the MRI acquisition. The macromolecular penetration in tumors was, then, probed by fluorescently labelled Bovine Serum Albumin administered via tail vein after the last MRI session. Microscopic images were used to quantify the percentage of area stained by fluorescent albumin in the tumor, as a measure of the blood vessel density, using an automatic thresholding method. The albumin extravasation in the tumor extravascular space was assessed based on the fluorescence found out of the blood vessels from histological samples taken from both of tumor rim and core, for instance as schematized in FIG. 2. In particular, the albumin florescence was averaged over all pixels at a given distance from the nearest vessel and stored as a function of distance from the vessels walls, by use of an optimized procedure, for instance schematized in FIG. 3, providing both a quantification of the availability of the albumin in the extravascular space of the concerned tumor, namely the amount of the extravasated FITC-Albumin, and the decay of its concentration over the distance x from a nearest vessel, or, in other words, its actual distribution and dilution within the extracellular spaces (for instance as schematized in FIG. 4).
Human prostate adenocarcinoma cells (PC-3) were supplied by ATCC (American Type Culture Collection) and grown in Hams F-12 medium supplemented with 10% foetal bovine serum, 2 mM glutamine, 100 IU/mL penicillin and 100 μg/mL streptomycin (all from Lonza, Verviers, Belgium). […] Tumour development was followed by palpation and measured by calliper every 2-3 days until the end of the experiment. […]

tumor tissues = settings: literature (Maeda et al.); cited from earlier work

Chain of Human Serum Albumin (P02768 25-609): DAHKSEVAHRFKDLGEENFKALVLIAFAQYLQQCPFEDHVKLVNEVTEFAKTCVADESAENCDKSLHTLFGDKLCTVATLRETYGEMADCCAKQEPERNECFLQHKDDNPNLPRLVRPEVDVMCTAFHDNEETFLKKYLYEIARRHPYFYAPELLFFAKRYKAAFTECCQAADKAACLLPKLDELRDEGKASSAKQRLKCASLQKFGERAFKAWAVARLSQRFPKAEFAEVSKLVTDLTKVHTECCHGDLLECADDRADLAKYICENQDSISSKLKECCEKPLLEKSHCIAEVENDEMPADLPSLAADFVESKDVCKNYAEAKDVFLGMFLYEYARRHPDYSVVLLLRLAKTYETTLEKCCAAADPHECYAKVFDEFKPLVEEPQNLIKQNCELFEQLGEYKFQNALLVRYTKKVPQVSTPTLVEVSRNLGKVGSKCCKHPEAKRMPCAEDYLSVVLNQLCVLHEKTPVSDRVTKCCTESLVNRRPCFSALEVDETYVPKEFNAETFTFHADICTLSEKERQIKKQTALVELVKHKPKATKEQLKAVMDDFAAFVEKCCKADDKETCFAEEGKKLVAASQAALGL

O=C([O-])CN(CCN(CC(=O)[O-])C[C@H](COP(=O)([O-])OC1CCC(c2ccccc2)(c2ccccc2)CC1)N(CC(=O)[O-])CC(=O)[O-])CC(=O)[O-].[Gd+3].[H+].[H+].[H+] [Gadofosveset, reference compound]
non-covalent binding with Human Serum Albumin (Human Serum Albumin): about 90%

CNC[C@H](O)[C@@H](O)[C@H](O)[C@H](O)CO.CNC[C@H](O)[C@@H](O)[C@H](O)[C@H](O)CO.O=C([O-])CN(CCN(CC(=O)[O-])CC(=O)O)CCN(CC(=O)O)C(COCc1ccccc1)C(=O)[O-].[Gd+3] (stereo not shown) [MultiHance, reference compound]
kTrans (Transfer Constant) ([1]; tumor core): 3.63 mL\(min × g) × 100 and 1.02 mL\(min × g) × 100 and 2.86 mL\(min × g) × 100 and 3.57 mL\(min × g) × 100 and 2.54 mL\(min × g) × 100 and 1.53 mL\(min × g) × 100 and 0.82 mL\(min × g) × 100 and 3.15 mL\(min × g) × 100 and 4.46 mL\(min × g) × 100 and 1.08 mL\(min × g) × 100 and 1.63 mL\(min × g) × 100 and 3.19 mL\(min × g) × 100 and 2.6 mL\(min × g) × 100 and 4.07 mL\(min × g) × 100 and 1.06 mL\(min × g) × 100
kTrans (Transfer Constant) ([1]; tumor rim): 8.14 mL\(min × g) × 100 and 3.59 mL\(min × g) × 100 and 3.81 mL\(min × g) × 100 and 4.51 mL\(min × g) × 100 and 4.22 mL\(min × g) × 100 and 4.44 mL\(min × g) × 100 and 3.23 mL\(min × g) × 100 and 4.78 mL\(min × g) × 100 and 6.14 mL\(min × g) × 100 and 1.74 mL\(min × g) × 100 and 5.23 mL\(min × g) × 100 (2×) and 5.82 mL\(min × g) × 100 and 3.76 mL\(min × g) × 100 and 2.88 mL\(min × g) × 100

B1: SMANCS (conjugate, UniProt P0A3R9 35-147, looked up)
Neocarzinostatin: AAPTATVTPSSGLSDGTVVKVAGAGLQAGTAYDVGQCAWVDTGVLACNPADFSSVTADANGSASTSLTVRRSFEGFLFDGTRWGTVDCTTAACQVGLSDAAGNGPEGVAISFN
modifications: styrene-maleic acid copolymer conjugate
spontaneous accumulation within tumor tissues versus normal tissues and organs (tumor tissues): up to 200 times
